Measurements reported in US10689354B2, “Aminoazole derivative” (Teijin Pharma Limited, priority 2015, dated 2020).

Experiments:
[1] = target: T1, androgen receptor (AR-LBD) (Rattus norvegicus, UniProt P15207); test: Evaluation of androgen receptor affinity (PolarScreen Androgen Receptor Competitor Assay Kit, Red; fluorescence polarization); settings: 22° C. for 5 hours, relative to binding rate of 1 μM DHT, read-out: AR affinity (pEC50) (converted)
T1 construct: 5 μL of 2×AR-LBD/Fluoromone AL Red Complex contained in the kit; purchased Invitrogen
T1 sequence (P15207 651-882 limits assumed): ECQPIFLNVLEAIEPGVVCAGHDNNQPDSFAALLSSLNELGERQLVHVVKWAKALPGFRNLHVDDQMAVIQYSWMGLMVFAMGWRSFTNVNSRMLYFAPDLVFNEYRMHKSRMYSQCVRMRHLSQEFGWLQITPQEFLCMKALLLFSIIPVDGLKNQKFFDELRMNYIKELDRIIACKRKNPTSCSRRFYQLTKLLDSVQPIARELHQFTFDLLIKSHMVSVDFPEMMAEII
Outline: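 Duplicate wells of test compound were mixed with the kit's rat AR-LBD–Fluoromone AL Red tracer complex and left 5 hours at 22 °C before polarization was read. A 4-parameter fit gave pEC50, with binding rate referenced to 1 μM dihydrotestosterone.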

[2] = target: T2, human androgen receptor (Homo sapiens, UniProt P10275); test: Reporter assay of an androgen receptor responsive sequence (luciferase, transiently transfected HEK293 cells); assay type: cell-based; settings: 24 hours incubation, relative to activity of 100 nM DHT, read-out: AR transcriptive activity (pEC50) (converted)
T2 construct: expressed in transfected cells; host or cells: HEK293
T2 sequence (P10275 1-920): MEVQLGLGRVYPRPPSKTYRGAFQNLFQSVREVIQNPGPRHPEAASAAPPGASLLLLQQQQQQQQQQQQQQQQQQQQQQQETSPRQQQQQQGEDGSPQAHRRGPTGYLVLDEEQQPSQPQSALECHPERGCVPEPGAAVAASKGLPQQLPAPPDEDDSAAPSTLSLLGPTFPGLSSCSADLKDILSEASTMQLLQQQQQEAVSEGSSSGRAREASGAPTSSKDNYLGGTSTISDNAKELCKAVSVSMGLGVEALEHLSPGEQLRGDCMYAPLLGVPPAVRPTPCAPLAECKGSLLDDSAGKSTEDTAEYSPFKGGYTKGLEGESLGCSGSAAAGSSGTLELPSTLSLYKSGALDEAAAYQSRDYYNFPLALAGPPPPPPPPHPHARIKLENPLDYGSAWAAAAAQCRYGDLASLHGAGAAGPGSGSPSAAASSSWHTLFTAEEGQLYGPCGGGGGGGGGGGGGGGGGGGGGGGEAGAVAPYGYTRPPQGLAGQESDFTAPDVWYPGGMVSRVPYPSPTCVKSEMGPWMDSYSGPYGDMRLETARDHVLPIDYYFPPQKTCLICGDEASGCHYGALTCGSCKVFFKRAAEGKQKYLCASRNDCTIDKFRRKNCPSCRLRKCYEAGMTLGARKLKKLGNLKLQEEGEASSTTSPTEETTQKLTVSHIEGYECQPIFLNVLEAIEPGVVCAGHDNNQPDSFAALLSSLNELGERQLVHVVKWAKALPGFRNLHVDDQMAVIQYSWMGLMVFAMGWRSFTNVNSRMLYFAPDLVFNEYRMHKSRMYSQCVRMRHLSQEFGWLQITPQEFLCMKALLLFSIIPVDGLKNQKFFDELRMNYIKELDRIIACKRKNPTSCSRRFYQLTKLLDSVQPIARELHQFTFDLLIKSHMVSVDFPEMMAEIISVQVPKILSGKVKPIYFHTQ
Outline: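 Agonism scored as pEC50, fitted by 4-parameter curve against the response to 100 nM DHT, from dual-luciferase readout after 24 h compound treatment. Cells were HEK293 co-transfected (3 h) with human AR expression vector, androgen-responsive firefly reporter and Renilla control, in charcoal-stripped serum.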

Row | EC50 [1] | EC50 [2] | SMILES
1 | 100 nM | 251 nM | Cc1sc(N(Cc2ccc3c(c2)C(=O)CCO3)c2ccc(C#N)cc2)nc1C(=O)NS(C)(=O)=O [Compound 138, 2-[4-cyano-N-[(4-oxochroman-6-yl)methyl]anilino]-5-methyl-N-methylsulfonyl-thiazole-4-carboxamide]
2 | 31.6 nM | 126 nM | Cc1sc(N(Cc2cc(F)c(F)c(F)c2)c2ccc(C#N)cc2)nc1C(=O)NS(C)(=O)=O [Compound 125, 2-[4-cyano-N-[(3,4,5-trifluorophenyl)methyl]anilino]-5-methyl-N-methylsulfonyl-thiazole-4-carboxamide]
3 | 126 nM | 2510 nM | Cc1sc(N(CCc2cccc(F)c2)c2ccc(C#N)cc2)nc1C(=O)NS(C)(=O)=O [Compound 83, 2-[4-cyano-N-[2-(3-fluorophenyl)ethyl]anilino]-5-methyl-N-methylsulfonyl-thiazole-4-carboxamide]
4 | 79.4 nM | 501 nM | Cc1oc(N(CCc2ccc(C#N)cc2)Cc2ccc(F)cc2)nc1C(=O)NS(C)(=O)=O [Compound 552, 2-[2-(4-cyanophenyl)ethyl-[(4-fluorophenyl)methyl]amino]-5-methyl-N-methylsulfonyl-oxazole-4-carboxamide]
5 | 316 nM | 7940 nM | COCCCS(=O)(=O)NC(=O)c1nc(N(CCc2ccc(C#N)cc2)Cc2ccc(C(F)(F)F)nc2)oc1C [Compound 559, 2-[2-(4-cyanophenyl)ethyl-[[6-(trifluoromethyl)-3-pyridyl]methyl]amino]-N-(3-methoxypropylsulfonyl)-5-methyl-oxazole-4-carboxamide]
6 | 31.6 nM | 1260 nM | Cc1sc(N(Cc2ccccc2)c2ccc(C#N)cc2)nc1C(=O)NS(=O)(=O)CC(F)(F)F [Compound 372, 2-(N-benzyl-4-cyano-anilino)-5-methyl-N-(2,2,2-trifluoroethylsulfonyl)thiazole-4-carboxamide]
7 | 31.6 nM | 50.1 nM | CS(=O)(=O)NC(=O)c1nc(N(Cc2ccccc2)c2ccc(C#N)cc2)sc1Cl [Compound 657, 2-(N-benzyl-4-cyano-anilino)-5-chloro-N-methylsulfonyl-thiazole-4-carboxamide]
8 | 501 nM | 6310 nM | CNC(=O)c1ccc(CCN(Cc2ccccc2)c2nc(C(=O)NS(C)(=O)=O)c(C)s2)cc1 [Compound 738, 2-[benzyl-[2-[4-(methylcarbamoyl)phenyl]ethyl]amino]-5-methyl-N-methylsulfonyl-thiazole-4-carboxamide]
9 | 50.1 nM | 50.1 nM | CS(=O)(=O)NC(=O)c1nc(N(Cc2ccc(OC(F)F)cc2)c2ccc(C#N)cc2)sc1Br [Example 256, 5-bromo-2-[4-cyano-N-[[4-(difluoromethoxy)phenyl]methyl]anilino]-N-methylsulfonyl-thiazole-4-carboxamide]
10 | 39.8 nM | 794 nM | COCCCOc1ccc(CN(c2ccc(C#N)cc2)c2nc(C(=O)NS(C)(=O)=O)c(C)s2)cc1 [Compound 582, 2-[4-cyano-N-[[4-(3-methoxypropoxy)phenyl]methyl]anilino]-5-methyl-N-methylsulfonyl-thiazole-4-carboxamide]
11 | 158 nM | > 10000 nM | Cc1sc(N(CCc2ccc(C#N)cc2)Cc2ccc(OC(F)(F)F)cc2)nc1C(=O)NS(=O)(=O)C1CC1 [Compound 721, 2-[2-(4-cyanophenyl)ethyl-[[4-(trifluoromethoxy)phenyl]methyl]amino]-N-cyclopropylsulfonyl-5-methyl-thiazole-4-carboxamide]
12 | 63.1 nM | 39.8 nM | Cc1sc(N(Cc2ccc(F)cc2)c2ccc(C#N)cc2)nc1C(=O)NS(C)(=O)=O [Compound 15, 2-[4-cyano-N-[(4-fluorophenyl)methyl]anilino]-5-methyl-N-methylsulfonyl-thiazole-4-carboxamide]
13 | 631 nM | > 10000 nM | Cc1sc(N(Cc2ccc(Br)cc2C#N)c2ccc(C#N)cc2)nc1C(=O)NS(C)(=O)=O [Example 182, 2-[N-[(4-bromo-2-cyano-phenyl)methyl]-4-cyano-anilino]-5-methyl-N-methylsulfonyl-thiazole-4-carboxamide]
14 | 50.1 nM | 251 nM | Cc1sc(N(CC2Cc3ccccc3C2)c2ccc(C#N)cc2)nc1C(=O)NS(C)(=O)=O [Compound 454, 2-[4-cyano-N-(indan-2-ylmethyl)anilino]-5-methyl-N-methylsulfonyl-thiazole-4-carboxamide]
15 | 39.8 nM | 794 nM | Cc1sc(N(CC2CCCCC2)c2ccc(C#N)cc2)nc1C(=O)NS(C)(=O)=O [Compound 344, 2-[4-cyano-N-(cyclohexylmethyl)anilino]-5-methyl-N-methylsulfonyl-thiazole-4-carboxamide]
16 | 39.8 nM | 316 nM | Cc1oc(N(CCc2ccc(Cl)cc2)Cc2ccc(OC(F)(F)F)cc2)nc1C(=O)NS(C)(=O)=O [Compound 544, 2-[2-(4-chlorophenyl)ethyl-[[4-(trifluoromethoxy)phenyl]methyl]amino]-5-methyl-N-methylsulfonyl-oxazole-4-carboxamide]
17 | 79.4 nM | 158 nM | Cc1sc(N(CCc2ccc(Cl)cc2Cl)Cc2ccccc2)nc1C(=O)NS(C)(=O)=O [Example 315, 2-[benzyl-[2-(2,4-dichlorophenyl)ethyl]amino]-5-methyl-N-methylsulfonyl-thiazole-4-carboxamide]
18 | 39.8 nM | 1000 nM | CCc1oc(N(Cc2ccc(OC(F)(F)F)cc2)c2ccc(C#N)cc2)nc1C(=O)NS(C)(=O)=O [Compound 632, 2-[4-cyano-N-[[4-(trifluoromethoxy)phenyl]methyl]anilino]-5-ethyl-N-methylsulfonyl-oxazole-4-carboxamide]
19 | 316 nM | 6310 nM | Cc1sc(N(Cc2ccccc2)c2ccc(C#N)cc2)nc1C(=O)NS(=O)(=O)Cc1ccccn1 [Compound 396, 2-(N-benzyl-4-cyano-anilino)-5-methyl-N-(2-pyridylmethylsulfonyl)thiazole-4-carboxamide]
20 | 316 nM | > 10000 nM | Cc1sc(N(Cc2ccc(S(C)(=O)=O)cc2)c2ccc(C#N)cc2)nc1C(=O)NS(C)(=O)=O [Compound 12, 2-[4-cyano-N-[(4-methylsulfonylphenyl)methyl]anilino]-5-methyl-N-methylsulfonyl-thiazole-4-carboxamide]
21 | 501 nM | > 10000 nM | Cc1sc(N(CCC2CCCCC2)Cc2ccc(Cl)cc2)nc1C(=O)NS(=O)(=O)Cc1cccc(F)c1 [Compound 731, 2-[(4-chlorophenyl)methyl-(2-cyclohexylethyl)amino]-N-[(3-fluorophenyl)methylsulfonyl]-5-methyl-thiazole-4-carboxamide]
22 | 398 nM | 316 nM | Cc1sc(N(Cc2cc3ccccc3cn2)c2ccc(C#N)cc2)nc1C(=O)NS(C)(=O)=O [Compound 529, 2-[4-cyano-N-(3-isoquinolylmethyl)anilino]-5-methyl-N-methylsulfonyl-thiazole-4-carboxamide]
23 | 63.1 nM | 1260 nM | CS(=O)(=O)NC(=O)c1nc(N(Cc2ccc(C(F)(F)F)nc2)c2ccc(C#N)cc2)sc1Br [Compound 645, 5-bromo-2-[4-cyano-N-[[6-(trifluoromethyl)-3-pyridyl]methyl]anilino]-N-methylsulfonyl-thiazole-4-carboxamide]
24 | 200 nM | > 10000 nM | Cc1sc(N(Cc2ccccc2)c2ccc(C#N)cc2)nc1C(=O)NS(=O)(=O)CC(C)C [Compound 371, 2-(N-benzyl-4-cyano-anilino)-N-isobutylsulfonyl-5-methyl-thiazole-4-carboxamide]
25 | 79.4 nM | 50.1 nM | CS(=O)(=O)NC(=O)c1nc(N(Cc2ccc(Br)cn2)c2ccc(C#N)cc2)sc1Br [Compound 642, 5-bromo-2-[N-[(5-bromo-2-pyridyl)methyl]-4-cyano-anilino]-N-methylsulfonyl-thiazole-4-carboxamide]
